# Reference: ChEMBL document CHEMBL3885881, “DrugMatrix”
# Organism: Rattus norvegicus
# Test: DrugMatrix - Regimen: Daily Repeat
# Type: toxicity, organism-based, Sprague-Dawley
# Design: regimen Daily Repeat, gender Male, age 6-8 weeks
# Details: in vivo, po, route oral GAVAGE, vehicle 100 % WATER; for ABSOLUTE BASOPHIL / ABSOLUTE EOSINOPHIL / ABSOLUTE LYMPHOCYTE / ABSOLUTE MONOCYTE / ABSOLUTE SEGMENTED NEUTROPHIL / BASOPHIL / EOSINOPHIL / ERYTHROCYTE COUNT / HEMATOCRIT / HEMOGLOBIN / LEUKOCYTE COUNT / LYMPHOCYTE / MEAN CORPUSCULAR HEMOGLOBIN / MEAN CORPUSCULAR HEMOGLOBIN CONCENTRATION / MEAN CORPUSCULAR VOLUME / MONOCYTE / NEUTROPHIL / NUCLEATED RED BLOOD CELLS / PLATELET COUNT: tissue Blood; for ALANINE AMINOTRANSFERASE / ALBUMIN / ALKALINE PHOSPHATASE / ASPARTATE AMINOTRANSFERASE / BLOOD UREA NITROGEN / CARBON DIOXIDE / CHLORIDE / CHOLESTEROL / CREATINE PHOSPHOKINASE / CREATININE / GLUCOSE / LACTATE DEHYDROGENASE / LIPASE / PHOSPHORUS / POTASSIUM / SODIUM / TOTAL BILIRUBIN / TOTAL PROTEIN / URIC ACID: tissue Plasma
# [1] = 0 mg/kg, 72 h, dose level Control, time 3 day
# [2] = 0 mg/kg, 120 h, dose level Control, time 5 day
# [3] = 175 mg/kg, 72 h, dose level High, time 3 day
compound,measurement,setting,value
O=c1[nH]c(=O)n(C2CCCO2)cc1F (centres undefined) [TEGAFUR],ABSOLUTE BASOPHIL,[1],0 CELLS/uL
same,ABSOLUTE EOSINOPHIL,[1],168.33 CELLS/uL
same,ABSOLUTE LYMPHOCYTE,[1],13654.17 CELLS/uL
same,ABSOLUTE MONOCYTE,[1],121 CELLS/uL
same,ABSOLUTE SEGMENTED NEUTROPHIL,[1],1223.17 CELLS/uL
same,BASOPHIL,[1],0%
same,EOSINOPHIL,[1],1.17%
same,ERYTHROCYTE COUNT,[1],5.7 x10E6/uL
same,HEMATOCRIT,[1],35.33%
same,HEMOGLOBIN,[1],13.97 G/DL
same,LEUKOCYTE COUNT,[1],15.17 x10E3/uL
same,LYMPHOCYTE,[1],89.83%
same,MEAN CORPUSCULAR HEMOGLOBIN,[1],24.53 pg
same,MEAN CORPUSCULAR HEMOGLOBIN CONCENTRATION,[1],39.53 G/DL
same,MEAN CORPUSCULAR VOLUME,[1],62.05 fL
same,MONOCYTE,[1],0.83%
same,NEUTROPHIL,[1],8.17%
same,NUCLEATED RED BLOOD CELLS,[1],0 /100WBC
same,PLATELET COUNT,[1],1312.17 x10E3/uL
same,ALANINE AMINOTRANSFERASE,[1],50.83 u/L
same,ALBUMIN,[1],4.18 G/DL
same,ALKALINE PHOSPHATASE,[1],334.17 u/L
same,ASPARTATE AMINOTRANSFERASE,[1],82.17 u/L
same,BLOOD UREA NITROGEN,[1],15.5 mg/dL
same,CARBON DIOXIDE,[1],31.33 mmol/L
same,CHLORIDE,[1],99.83 MEQ/L
same,CHOLESTEROL,[1],76 mg/dL
same,CREATINE PHOSPHOKINASE,[1],272.17 u/L
same,CREATININE,[1],0.17 mg/dL
same,GLUCOSE,[1],143 mg/dL
same,LACTATE DEHYDROGENASE,[1],157.5 u/L
same,LIPASE,[1],9.33 u/L
same,PHOSPHORUS,[1],12.18 mg/dL
same,POTASSIUM,[1],6.78 MEQ/L
same,SODIUM,[1],143.9 MEQ/L
same,TOTAL BILIRUBIN,[1],0.22 mg/dL
same,TOTAL PROTEIN,[1],5.85 G/DL
same,URIC ACID,[1],1.7 mg/dL
same,ABSOLUTE BASOPHIL,[2],0 CELLS/uL
same,ABSOLUTE EOSINOPHIL,[2],0 CELLS/uL
same,ABSOLUTE LYMPHOCYTE,[2],13539.33 CELLS/uL
same,ABSOLUTE MONOCYTE,[2],177.67 CELLS/uL
same,ABSOLUTE SEGMENTED NEUTROPHIL,[2],2116.33 CELLS/uL
same,BASOPHIL,[2],0%
same,EOSINOPHIL,[2],0%
same,ERYTHROCYTE COUNT,[2],5.78 x10E6/uL
same,HEMATOCRIT,[2],36.13%
same,HEMOGLOBIN,[2],14.1 G/DL
same,LEUKOCYTE COUNT,[2],15.83 x10E3/uL
same,LYMPHOCYTE,[2],85.83%
same,MEAN CORPUSCULAR HEMOGLOBIN,[2],24.42 pg
same,MEAN CORPUSCULAR HEMOGLOBIN CONCENTRATION,[2],39 G/DL
same,MEAN CORPUSCULAR VOLUME,[2],62.55 fL
same,MONOCYTE,[2],0.83%
same,NEUTROPHIL,[2],13.33%
same,NUCLEATED RED BLOOD CELLS,[2],0.17 /100WBC
same,PLATELET COUNT,[2],1281.17 x10E3/uL
same,ALANINE AMINOTRANSFERASE,[2],55.5 u/L
same,ALBUMIN,[2],4.22 G/DL
same,ALKALINE PHOSPHATASE,[2],345 u/L
same,ASPARTATE AMINOTRANSFERASE,[2],92.5 u/L
same,BLOOD UREA NITROGEN,[2],16.5 mg/dL
same,CARBON DIOXIDE,[2],26.5 mmol/L
same,CHLORIDE,[2],103.5 MEQ/L
same,CHOLESTEROL,[2],78.5 mg/dL
same,CREATINE PHOSPHOKINASE,[2],381.5 u/L
same,CREATININE,[2],0.21 mg/dL
same,GLUCOSE,[2],161.83 mg/dL
same,LACTATE DEHYDROGENASE,[2],487.5 u/L
same,LIPASE,[2],10.17 u/L
same,PHOSPHORUS,[2],11.83 mg/dL
same,POTASSIUM,[2],6.4 MEQ/L
same,SODIUM,[2],146.95 MEQ/L
same,TOTAL BILIRUBIN,[2],0.22 mg/dL
same,TOTAL PROTEIN,[2],6.22 G/DL
same,URIC ACID,[2],1.83 mg/dL
same,ABSOLUTE BASOPHIL,[3],0 CELLS/uL
same,ABSOLUTE EOSINOPHIL,[3],0 CELLS/uL
same,ABSOLUTE LYMPHOCYTE,[3],11530.33 CELLS/uL
same,ABSOLUTE MONOCYTE,[3],235 CELLS/uL
same,ABSOLUTE SEGMENTED NEUTROPHIL,[3],434.67 CELLS/uL
same,BASOPHIL,[3],0%
same,EOSINOPHIL,[3],0%
same,ERYTHROCYTE COUNT,[3],5.62 x10E6/uL
same,HEMATOCRIT,[3],35%
same,HEMOGLOBIN,[3],13.93 G/DL
same,LEUKOCYTE COUNT,[3],12.2 x10E3/uL
same,LYMPHOCYTE,[3],94.33%
same,MEAN CORPUSCULAR HEMOGLOBIN,[3],24.87 pg
same,MEAN CORPUSCULAR HEMOGLOBIN CONCENTRATION,[3],39.83 G/DL
same,MEAN CORPUSCULAR VOLUME,[3],62.43 fL
same,MONOCYTE,[3],2%
same,NEUTROPHIL,[3],3.67%
same,NUCLEATED RED BLOOD CELLS,[3],0 /100WBC
same,PLATELET COUNT,[3],1245 x10E3/uL
same,ALANINE AMINOTRANSFERASE,[3],377 u/L
same,ALBUMIN,[3],4.23 G/DL
same,ALKALINE PHOSPHATASE,[3],316.67 u/L
same,ASPARTATE AMINOTRANSFERASE,[3],623.67 u/L
same,BLOOD UREA NITROGEN,[3],18 mg/dL
same,CARBON DIOXIDE,[3],25.33 mmol/L
same,CHLORIDE,[3],98 MEQ/L
same,CHOLESTEROL,[3],59.33 mg/dL
same,CREATINE PHOSPHOKINASE,[3],3619.67 u/L
same,CREATININE,[3],0.24 mg/dL
same,GLUCOSE,[3],187.67 mg/dL
same,LACTATE DEHYDROGENASE,[3],3501.33 u/L
same,LIPASE,[3],13.33 u/L
same,PHOSPHORUS,[3],13.57 mg/dL
same,POTASSIUM,[3],9.03 MEQ/L
same,SODIUM,[3],141.23 MEQ/L
same,TOTAL BILIRUBIN,[3],0.23 mg/dL
same,TOTAL PROTEIN,[3],5.9 G/DL
same,URIC ACID,[3],2.9 mg/dL
